Assay results reported in the supplement of paper PMC10307832.

Columns and labels:
Experiment in all cases: relative viability (nuclei count vs DMSO), 5 days (fraction); higher = more cells survive
BAM7 + Phenformin = compound: CCOC1=CC=CC=C1N=NC2=C(NN(C2=O)C3=NC(=CS3)C4=CC=CC=C4)C [BAM7] + N=C(N)NC(=N)NCCc1ccccc1 [Phenformin] (partner 250 µM)
How it was run: (§1)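 Lung cancer cell lines were pin-tool dosed in 1536-well plates on the day after seeding, with either a lone drug or a fixed anchor-drug dose plus five library-drug doses (not always all listed) in √10 steps. Nuclei were counted on 4× images after 5 days. Relative viability is the ratio of treated-well to vehicle-well nuclei counts, with each value a median of duplicate plates.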

[1] = compound: CCn1c(-c2nonc2N)nc2c(C#CC(C)(C)O)ncc(OC[C@H]3CCCNC3)c21 + CS(=O)(=O)CCNCc1ccc(-c2ccc3ncnc(Nc4ccc(OCc5cccc(F)c5)c(Cl)c4)c3c2)o1 [Lapatinib] (partner 2 µM)
How it was run: as §1

BAM7 + Vorinostat = compound: CCOC1=CC=CC=C1N=NC2=C(NN(C2=O)C3=NC(=CS3)C4=CC=CC=C4)C [BAM7] + O=C(CCCCCCC(=O)Nc1ccccc1)NO [Vorinostat] (partner 1 µM)
How it was run: as §1

[2] = compound: CCn1c(-c2nonc2N)nc2c(C#CC(C)(C)O)ncc(OC[C@H]3CCCNC3)c21 + O=C(CCCCCCC(=O)Nc1ccccc1)NO [Vorinostat] (partner 1 µM)
How it was run: as §1

| Cell Line | relative viability (BAM7 + Phenformin; first compound 0.5 µM) | relative viability (BAM7 + Phenformin; first compound 5 µM) | relative viability (BAM7 + Phenformin; first compound 15.81 µM) | relative viability (BAM7 + Phenformin; first compound 50 µM) | relative viability ([1]; first compound 0.01 µM) | relative viability ([1]; first compound 0.03162 µM) | relative viability ([1]; first compound 0.1 µM) | relative viability ([1]; first compound 0.3162 µM) | relative viability ([1]; first compound 1 µM) | relative viability (BAM7 + Vorinostat; first compound 0.5 µM) | relative viability (BAM7 + Vorinostat; first compound 5 µM) | relative viability (BAM7 + Vorinostat; first compound 15.81 µM) | relative viability (BAM7 + Vorinostat; first compound 50 µM) | relative viability ([2]; first compound 0.01 µM) | relative viability ([2]; first compound 0.03162 µM) | relative viability ([2]; first compound 0.1 µM) | relative viability ([2]; first compound 0.3162 µM) | relative viability ([2]; first compound 1 µM) |
| --- | --- | --- | --- | --- | --- | --- | --- | --- | --- | --- | --- | --- | --- | --- | --- | --- | --- | --- |
| NCI-H1993 | 0.575 | 0.617 | 0.533 | 0.543 | 0.957 | 0.781 | 0.947 | 0.704 | 0.872 | 0.723 | 0.765 | 0.71 | 0.696 | 1.01 | 0.805 | 0.825 | 0.776 | 0.543 |
| NCI-H520 | 0.668 | 0.573 | 0.704 | 0.707 | 0.923 | 0.952 | 0.727 | 0.454 | 0.425 | 0.801 | 0.866 | 0.702 | 0.718 | 0.706 | 0.711 | 0.585 | 0.543 | 0.5 |
| NCI-H647 | 0.54 | 0.443 | 0.539 | 0.591 | 0.874 | 1.23 | 1.08 | 0.788 | 0.981 | 0.4 | 0.532 | 0.556 | 0.712 | 0.616 | 0.491 | 0.603 | 0.358 | 0.587 |
| SK-LU-1 | 0.556 | 0.733 | 0.532 | 0.619 | 1.02 | 0.907 | 0.85 | 0.894 | 0.676 | 0.83 | 0.901 | 0.784 | 0.847 | 0.767 | 0.781 | 0.78 | 0.677 | 0.767 |
| NCI-H1650 | 0.473 | 0.501 | 0.484 | 0.472 | 0.758 | 0.864 | 0.708 | 0.725 | 0.578 | 0.605 | 0.449 | 0.428 | 0.571 | 0.614 | 0.628 | 0.642 | 0.377 | 0.462 |
| NCI-H2009 | 0.497 | 0.542 | 0.426 | 0.465 | 0.974 | 1.03 | 1.05 | 1.02 | 0.905 | 0.67 | 0.755 | 0.706 | 0.693 | 0.726 | 0.708 | 0.788 | 0.706 | 0.821 |
| LOU-NH91 | 0.689 | 0.795 | 0.66 | 0.66 | 0.802 | 0.681 | 0.717 | 0.652 | 0.618 | 0.899 | 0.936 | 0.917 | 0.903 | 0.899 | 0.828 | 1 | 0.767 | 0.794 |
| NCI-H2405 | 0.395 | 0.411 | 0.416 | 0.435 | 1.11 | 1.06 | – | 1.01 | 1.02 | 1.02 | 1.06 | 1.18 | 0.917 | 0.811 | 0.838 | 0.913 | 0.854 | 1.06 |
| LCLC-97TM1 | 0.45 | 0.443 | 0.43 | 0.473 | – | 0.854 | 1.06 | 0.663 | 1.27 | 0.941 | 0.878 | – | 0.763 | 0.8 | 0.722 | 0.774 | 0.624 | 0.664 |
